Reference: patent publication US8598212B2, “Therapeutic agent and preventative agent for alzheimer's disease” (Toray Industries, Inc., priority 2010, dated 2013)
Counter-ions that a name gives are not always drawn.

Assays:
[1] = tested on: Alzheimer's disease model rats; experiment: Morris water maze test in Alzheimer's disease model rats (basal ganglia destroyed with ibotenic acid); type: in vivo, Wistar rats; conditions: 30 mg/kg oral once per day from Day 0 after destruction treatment, not given just before trials; Day 10 to Day 12; compared to vehicle-administered group
[2] = tested on: mouse partial sciatic nerve ligation model; experiment: von Frey test in mouse partial sciatic nerve ligation model (Seltzer model); type: in vivo, ICR mice; conditions: for inhibition in vivo at 10 mg/kg / von Frey Total Score of 1 Hour after Oral Administration (Mean ± S.E.), Test Compound-Administered Group: dose 10 mg/kg oral; for von Frey Total Score of 1 Hour after Oral Administration (Mean ± S.E.), Test Compound-Administered Group: n = 5-6, 7 days after ligation
Protocol: As a reference example, the mouse partial sciatic nerve ligation model (Seltzer model), by which neuropathic pain can be evaluated, was used to evaluate the analgesic effect of Compound (I).
Mouse models of partial sciatic nerve ligation were prepared according to Seltzer's method (Malmberg et al., Pain, 1998, vol. 76, p. 215-222). Male ICR mice of 5 weeks old were anesthetized with Sodium pentobarbital (70 mg/kg, i.p.), and thereafter, the sciatic nerve at the femoral region of the right hind limb of each mouse was exposed, and the sciatic nerve was triply ligated tightly with silk suture of 8-0 (NATSUME SEISAKUSHO) under microscope so that only half thickness of the nerve was trapped in the ligature, which mice were used as a ligation group. The mice whose sciatic nerves were exposed but not ligated were used as a sham operation group.
Evaluation of neuropathic pain (hereinafter “von Frey test”) was carried out as follows. Mice were conditioned for at least 1 hour in an acryl cage for measurement (NATSUME SEISAKUSHO) placed on a wire net. Thereafter, using a filament (North Coast Medical, Inc. CA, USA) which exerted a pressure of 0.16 g, the mice were subjected to mechanical tactile stimulus by applying the filament to the plantar surface of both hindpaws 3 times, each for 3 seconds, with an interval of 3 seconds.
Seven days after the sciatic nerve ligation, test compounds were orally administered to the mice. Prior to the oral administration of the test compounds, the von Frey test was carried out to split the animals of the ligation group into vehicle groups and test compound-administered groups so that the sums of the total scores of the groups were equalized. The mice of the sham operation groups, the vehicle groups and the test compound-administered groups were subjected to the von Frey test 1 hour, 2 hours and 3 hours after oral administration of a vehicle or a test compound, and the obtained scores were used as an indicator of analgesic effect. As a vehicle of test compound solution or suspension, dimethyl sulfoxide (hereinafter “DMSO”):Tween80:distilled water (1:1:8), 27% hydroxypropyl-β-cyclodextrin (hereinafter “27% HP-β-CD”) or 0.5% MC was used.
For evaluation of drug efficacy, data were statistically processed by the unpaired multigroup t test (adjusted by Dunnett), taking the vehicle group of each measurement time as a control.

[3] = tested on: rats with medial septal lesions; conditions: 0.5 mg/kg; Ogura et al., 1998; cited from earlier work
[4] = tested on: rat neuropathic pain model; conditions: Clayton et al., Anesthesiology, 2007; cited from earlier work
[5] = tested on: rat diabetic neuropathic pain model; conditions: Chen et al., 2009; cited from earlier work
[6] = tested on: patients with complex regional pain syndrome; conditions: Sinia et al., Clin J Pain, 2007; cited from earlier work
[7] = Mus musculus, po, 1 h, relative to vehicle and sham operation groups, read-out: Score Improvement

Which “Escape latency in Morris water maze” value [1] does the source give for `COc1ccc(-n2nc(C3(O)CCC(O)CC3)cc2-c2ccc(C)cc2)cc1` (single isomer, unassigned) [Compound 3, 1-(1-(4-methoxyphenyl)-5-(p-tolyl)-1H-pyrazol-3-yl)cyclohexan-cis-1,4-diol] here?
The value was “statistically significantly shortened”.

For `COc1ccc(-c2cc(C3(O)CCC(O)CC3)nn2-c2ccc(OC)cc2)cc1` (stereo not drawn) [Compound 8, 1-(1,5-bis(4-methoxyphenyl)-1H-pyrazol-3-yl)cyclohexan-cis-1,4-diol], which inhibition in vivo at 10 mg/kg [2, 7] is on record?
The inhibition in vivo at 10 mg/kg was 70%.

With `COc1ccc(-n2nc(C3(O)CCC(O)(C(F)(F)F)CC3)cc2-c2ccc(C)cc2)cc1` (stereo not drawn) [Compound 10, 1-(1-(4-methoxyphenyl)-5-(p-tolyl)-1H-pyrazol-3-yl)-4-(trifluoromethyl)cyclohexan-cis-1,4-diol] as the molecule, how does the inhibition in vivo at 1 mg/kg ([2]; Mus musculus, po, 1 h, dose 1 mg/kg oral, relative to vehicle and sham operation groups, read-out: Score Improvement) read?
Its inhibition in vivo at 1 mg/kg is 78%.

With `COc1ccc(-n2nc(C3(O)CCC(O)CC3)cc2-c2ccc(C)nc2)cc1` (stereo not drawn) [Compound 15, 1-(1-(4-methoxyphenyl)-5-(6-methylpyridin-3-yl)-1H-pyrazol-3-yl)cyclohexan-cis-1,4-diol] as the molecule, how does the inhibition in vivo at 10 mg/kg [2, 7] read?
The inhibition in vivo at 10 mg/kg was 84%.

What about the “von Frey Total Score of 1 Hour after Oral Administration (Mean ± S.E.), Test Compound-Administered Group” value [2] of the same molecule?
The value was 1.0 ± 0.4.

For `COc1ccc(-c2nc(C3(O)CCC(O)CC3)oc2-c2ccc(OC)cc2)cc1` (stereo not drawn) [Compound 43, 4-(4,5-bis(4-methoxyphenyl)oxazol-2-yl)cyclohexan-cis-1,4-diol], which inhibition in vivo at 10 mg/kg [2, 7] is on record?
Its inhibition in vivo at 10 mg/kg is 100%.

For `CCc1ccc(-c2cc(C3(O)CCC(O)CC3)nn2-c2ccc(OC)cc2)cc1` (centres unmarked) [Compound 48], which inhibition in vivo at 10 mg/kg [2, 7] is on record?
Its inhibition in vivo at 10 mg/kg is 83%.

What about the “von Frey Total Score of 1 Hour after Oral Administration (Mean ± S.E.), Test Compound-Administered Group” value [2] of the same molecule?
The value was 1.0 ± 0.5.

Which inhibition in vivo at 10 mg/kg [2, 7] does the source give for `COc1ccc(-n2nc(C3(O)CCC(O)CC3)cc2-c2ccc(C)cc2)cc1F` (centres unmarked) [Compound 54] here?
Its inhibition in vivo at 10 mg/kg is 83%.

With `COc1ccc(-n2nc(C3(O)CCC(O)CC3)cc2-c2ccc(C)c(F)c2)cc1` (centres unmarked) [Compound 55] as the molecule, how does the inhibition in vivo at 3 mg/kg ([2]; Mus musculus, po, 1 h, dose 3 mg/kg oral, relative to vehicle and sham operation groups, read-out: Score Improvement) read?
Its inhibition in vivo at 3 mg/kg is 93%.

For `COc1cc2c(cc1OC)C(=O)C(CC1CCN(Cc3ccccc3)CC1)C2` (centres unmarked) [donepezil hydrochloric acid salt], which “effectiveness in the Morris water maze test” value [3] is on record?
Its value is “effective”.

For `COc1cc2c(cc1OC)C(=O)C(CC1CCN(Cc3ccccc3)CC1)C2` (centres unmarked) [donepezil], which analgesic effect [4] is on record?
Its analgesic effect is “exhibits an analgesic effect”.

For `CC12CC3CC(C)(C1)CC(N)(C3)C2` [memantine], which analgesic effect [5] is on record?
The analgesic effect was “exhibits an analgesic effect”.

What about the analgesic effect [6] of the same molecule?
The analgesic effect was “exhibits an analgesic effect”.
